Here are results for 15 compounds from US9670197B2, “Small molecule modifiers of the Hec1-Nek2 interaction in G2/M” (The Regents of the University of California, priority 2013, dated 2017).

The test system of one test is MB468. The experiment in a line: Cancer cell growth inhibition, MB468 (MDA-MB-468). Format: cell-based. The note with it: Homo sapiens, Table 1, MB468, read-out: MB468 IC50.
The test system of the next test is HeLa. The test can be described thus: Cancer cell growth inhibition, HeLa. Format: cell-based. The note with it: Homo sapiens; Table 1, HeLa; read-out: HeLa IC50. As for the experimental part: Cell lines and establishment of stable cell lines. Human breast cancer cell lines MDA-MB-231 and MDA-MB-468, osteosarcoma line U20S, cervical adenocarcinoma line HeLa, and normal skin fibroblast Hs27 were maintained in DMEM medium (Invitrogen, Grand Island, N.Y.) supplemented 10% fetal bovine serum (FBS) and 1% penicillin-streptomycin. The leukemia cell line K562 and glioblastoma cell line T98G were grown in RPMI 1640 supplemented 10% FBS and 1% penicillin-streptomycin. Normal mammary gland epithelial cell line MCF10A was cultured in DMEM/F12 (50:50) plus 5% horse serum, 0.1 μg/mL cholera toxin, 10 μg/mL insulin, 0.5 μg/mL hydrocortisone, and 20 ng/mL epidermal growth factor. To establish MDA-MB-468 cells that stably expressed each individual GFP-Hec1 deletion construct described above, cells were infected with retrovirus expressing GFP-Hec1 WT, GFP-Hec1 W395A and GFP-Hec1 WLK/AAA, and were selected with 2 μg/ml puromycin.

Another test deals with cancer cell lines. The test can be described thus: Cancer cell growth inhibition. Format: cell-based.
The next test concerns Nek2. The test can be described thus: Nek2 protein level in treated HeLa cells, western blot. Format: cell-based. The note with it: co-treatment with INH41 or INH154. As for the experimental part:
INH-induced Nek2 degradation; INH-inhibition of Hec1 phosphorylation by Nek2. […] To evaluate whether INH treatment affected cell cycle profile or Nek2 mRNA level, we performed FACS and real-time PCR analysis.
Protein extraction and western blot analysis. The protein extractions and western blot analyses of Examples 4-6 were conducted as follows. Cell extracts were prepared and equal amounts of protein were separated by SDS-PAGE (10% w/v gel) followed by electrophoretic transfer to PVDF membranes (Millipore, Billerica, Mass.). After blocking with 5% w/v powdered non-fat milk, the membrane was incubated with different antibodies for overnight at 4° C. and treated for 1 hr with horseradish peroxidase-conjugated goat anti-mouse IgG and goat anti-rabbit IgG antibodies (GeneTex, Irvine, Calif.). ECL detection of the horseradish peroxidase reaction was performed according to the manufacturer's instructions (Millipore, Billerica, Mass.). Protein signal was measured on a LAS 4000 mini Imaging System (Fujifilm, Valhalla, N.Y.).
In general terms: Immunoblotting shows a protein as a band on a membrane.

A further test concerns Hec1. The test can be described thus: Biotin-conjugated INH pull-down of Hec1 and Hec1 mutants. Format: binding.

Where a SMILES comes first, the peptide text is derived from it. The star is where a group is joined. Cbz = O=C(OCc1ccccc1)*

A word on the IC50: it is the concentration that gives 50% inhibition. In the case of `Cc1cc(NC(=O)CCC(=O)O)cc(C)c1-c1csc(NC(=O)c2ccncc2)n1` [INH146, 4-(4-(2-(isonicotinamido)thiazol-4-yl)-3,5-dimethylphenylamino)-4-oxobutanoic acid], the concentration for half-maximal inhibition (IC50) is greater than 10000 nM with MB468 and greater than 5000 nM in the test with HeLa.

With `Cc1cc(N2C(=O)CCC2=O)cc(C)c1-c1csc(NC(=O)c2ccncc2)n1` [INH160, N-(4-(4-(2,5-dioxopyrrolidin-1-yl)-2,6-dimethylphenyl)thiazol-2-yl)isonicotinamide], the half-maximal inhibitory concentration (IC50) in the test on MB468 stood at 3300 nM; in the test on HeLa it was 5000 nM.

For the compound `COc1cncc(Oc2cc(C)c(-c3csc(NC(=O)c4ccncc4)n3)c(C)c2)n1` [INH81, N-(4-(4-((6-methoxypyrazin-2-yl)oxy)-2,6-dimethylphenyl)thiazol-2-yl)isonicotinamide], the “inhibition of cancer cell growth, IC50 (in words)” value (“inhibition of cancer cell growth” for short) with cancer cell lines is “sub-micromolar IC50”. For the same compound, the values for the IC50 in the test on MB468 and in the test on HeLa were 400 nM and 1400 nM, respectively.

Consider `Cc1cc(N2CCOCC2)cc(C)c1-c1csc(NC(=O)c2ccncc2)n1` [INH168], for which the “inhibition of cancer cell growth” value in the test on cancer cell lines was “sub-micromolar IC50”. In addition, the results for the 50% inhibitory concentration (IC50) in the test with MB468 and with HeLa were 120 nM and 200 nM, respectively.

Turning to `Cc1cc([N+](=O)[O-])cc(C)c1-c1csc(NC(=O)c2ccncc2)n1` [INH78, N-(4-(2,6-Dimethyl-4-nitrophenyl)thiazol-2-yl)isonicotinamide], the “inhibition of cancer cell growth” value with cancer cell lines is reported as “sub-micromolar IC50”. In addition, the values for the IC50 in the test with MB468 and with HeLa were 1400 nM and 630 nM, respectively.

On to `Cc1cc(N)cc(C)c1-c1csc(NC(=O)c2ccncc2)n1` [INH79, N-(4-(4-amino-2,6-dimethylphenyl)thiazol-2-yl)isonicotinamide], for which the IC50 in the test with MB468 came to 3200 nM; with HeLa it was 2300 nM.

For the compound `Cc1cc(F)cc(C)c1-c1csc(NC(=O)c2ccncc2)n1` [INH80, N-(4-(4-fluoro-2,6-dimethylphenyl)thiazol-2-yl)isonicotinamide], the 50% inhibitory concentration (IC50) in the test on MB468 was determined as 4400 nM; in the test with HeLa, 2000 nM.

In the case of `COc1cc(C)cc(C)c1-c1csc(NC(=O)c2ccncc2)n1` [INH56], the IC50 in the test with MB468 came to 4500 nM; with HeLa it was 1800 nM.

Turning to `Cc1cc(NCC(=O)O)cc(C)c1-c1csc(NC(=O)c2ccncc2)n1` [INH156, N-(4-(2-(Isonicotinamido)thiazol-4-yl)-3,5-dimethylphenyl)-glycine], the half-inhibitory concentration (IC50) in the test on MB468 turned out to be 9400 nM; in the test with HeLa, 2400 nM.

In the case of `Cc1cc(O)cc(C)c1-c1csc(NC(=O)c2ccncc2)n1` [INH182, N-(4-(4-hydroxy-2,6-dimethylphenyl)thiazol-2-yl)isonicotinamide], the values for the IC50 in the test with MB468 and in the test with HeLa were 2000 nM and 3500 nM, respectively.

For `CC(C)C[C@@H](C=O)NC(=O)[C@H](CC(C)C)NC(=O)[C@H](CC(C)C)NC(=O)OCc1ccccc1` [MG132, reference compound] (Cbz-Leu-Leu-Leu-aldehyde), the “effect on INH-induced degradation of Nek2” value in the test with Nek2 is “prevented INH-induced degradation of Nek2”.

For `Cc1cc(N2CCC(OCCOCCOCCOCCNC(=O)CCCC[C@@H]3SC[C@@H]4NC(=O)N[C@@H]43)CC2)cc(C)c1-c1csc(NC(=O)c2ccncc2)n1` [biotin-INH154, N-(4-(2,6-dimethyl-4-(4-((13-oxo-17-((3aS,4S,6aR)-2-oxohexahydro-1H-thieno [3,4-d]imidazol-4-yl)-3,6,9-trioxa-12-azaheptadecyl)oxy)piperidin-1-yl)phenyl)thiazol-2-yl)isonicotinamide], the “binding of Hec1 W395A and W395A/L399A/K400A mutants” value in the test on Hec1 is on record as “neither mutant was able to bind”.

Consider `Cc1cc(N2CCN(C)CC2)cc(C)c1-c1csc(NC(=O)c2ccncc2)n1` [INH212, N-(4-(2,6-dimethyl-4-(4-methylpiperazin-1-yl)phenyl)thiazol-2-yl)isonicotinamide], for which the IC50 in the test on MB468 turned out to be 2400 nM; with HeLa it was 2500 nM.

With `Cc1cc(C#N)cc(C)c1-c1csc(NC(=O)c2ccncc2)n1` [INH174, N-(4-(4-Cyano-2,6-dimethylphenyl)thiazol-2-yl)isonicotinamide], the “inhibition of cancer cell growth” value in the test on cancer cell lines is “sub-micromolar IC50”. The values for the IC50 in the test on MB468 and in the test on HeLa were 500 nM and 600 nM, respectively.

As to `Cc1cc(NC(=O)C2CC2)cc(C)c1-c1csc(NC(=O)c2ccncc2)n1` [INH136, N-(4-(4-((cyclopropylcarbonyl)amino)-2,6-dimethylphenyl)thiazol-2-yl)isonicotinamide], the half-inhibitory concentration (IC50) with MB468 is 3400 nM; with HeLa, 1500 nM.
